How the values were obtained:
[1] = tested on: neutrophil recruitment to the endothelium; assay: Neutrophil recruitment in Airway-on-Chip emulating acute asthma exacerbation (HRV-16 infection, IL-13 stimulation); type: cell-based, human; settings: 10 microM; three stimulation conditions (HRV-16, IL-13, HRV-16+IL-13); chips flipped
Excerpt: As shown here, exemplary embodiments of an inflamed Airway-on-Chip emulating acute asthma exacerbation by combining Rhinovirus infection with IL-13 stimulation in the presence of an exemplary immuno-modulatory compound. In some embodiments, neutrophil recruitment following exacerbation with HRV can be reduced by an exemplary CXCR2 antagonist MK-7123, however these experiments were done by flipping chips. […] HRV-16 is represented as small green dots in the upper channel while neutrophil cells (also described as polymorphonuclear leukocytes (PMN)) are represented as large purple spots in the lower channel. […] Treatments included HRV-16 alone infected cells, IL-13 alone treated cells, HRV-16 and (+) IL-13 treated cells, HRV-16+CXCR2in (inhibitor) treated cells, and HRV-16+IL-13+CXCR2in. Non-stimulated chips are showing limited neutrophil recruitment while HRV infected and IL-13-treated chips show increased neutrophil recruitment. IL-13+HRV induce an additive increase in neutrophil recruitment, while treatment with a CXCR2 antagonist. […] Quantification of neutrophil recruitment (**p<0.01; ****p<0.001).
HRV-16 is represented as small green dots in the upper channel while neutrophil cells (also described as polymorphonuclear leukocytes (PMN)) are represented as large purple spots in the lower channel. […] Quantification of neutrophil recruitment (**p<0.01; ****p<0.001).

[2] = tested on: goblet cells hyperplasia, pro-inflammatory cytokines, cilia beating frequency; assay: Small-airway-on-a-chip perfused with IL-13 (Th2 microenvironment), airway remodeling phenotype; type: cell-based, human; settings: IL-13 through the vascular channel

Compound | neutrophil recruitment [1] | IL-13 induced airway remodeling phenotype [2]
CC[C@@H](Nc1c(Nc2cccc(C(=O)N(C)C)c2O)c(=O)c1=O)c1ccc(C)o1 [MK-7123] | significantly reduced neutrophil recruitment | 
C[C@@H]1CCN(C(=O)CC#N)C[C@@H]1N(C)c1ncnc2[nH]ccc12 [Tofacitinib] |  | suppressed
